Values quoted from earlier work in US8716300B2, “Frequency modulated drug delivery (FMDD)” (Synthonics, Inc., priority 2008, dated 2014).

Columns and labels:
MES induced seizures = conditions: combined treatment of dizocilpine with valproate
reserpinized rats = conditions: remacemide 5 mg/kg administered with lowest effective dose of levodopa (75 mg/kg)

Compound | protection against MES induced seizures (MES induced seizures) [%] | reduction in the ED50 of valproate (MES induced seizures; MES induced seizures) [fold] | increase in horizontal motor activity over levodopa given alone (reserpinized rats) [fold]
C[C@]12N[C@H](Cc3ccccc31)c1ccccc12 [dizocilpine] | 50 | ~3 | –
CC(Cc1ccccc1)(NC(=O)CN)c1ccccc1 (stereo not drawn) [remacemide] | – | – | 9
